Laboratory results: patent US20100160454A1, “ANTIMICROBIAL AGENTS, COMPOSITIONS AND PRODUCTS CONTAINING THE SAME, AND METHODS OF USING THE COMPOSITIONS AND PRODUCTS” (Eastman Chemical Company, priority 2008, published 2010)

Key:
Experiment in all cases: Microbiological challenge testing in BPW broth, graded subculture counts
Type in all cases: cell-based
[1] = system: Aspergillus niger Wild type; conditions: A. niger
How it was run: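 Wild-type A. niger, grown in TSB with 1% dextrose at 22 °C and on SABD until sporulation, was adjusted to 1.0×10^8 spores/vegetative cells (hemocytometer). It was inoculated in triplicate into BPW with 1% dextrose to give 10^5 to 10^6 CFU/mL at time zero. Counts were by spread plate on SABD, ≥48 h at 22 °C, CFU/mL = count × dilution factor.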

[2] = system: Candida albicans Wild type; conditions: C. albicans
How it was run: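 Wild-type C. albicans grown in TSB with 1% dextrose at 22 °C, then adjusted by turbidity and hemocytometer to a 10^8 CFU/mL challenge confirmed on SABD plates. Challenge added to BPW broth containing 1% dextrose, giving 10^5 to 10^6 CFU/mL at time zero; controls in triplicate. Counts by serial dilution and spread-plating after at least 48 h incubation.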

[3] = system: Escherichia coli ATCC 25922; conditions: E. Coli
How it was run: (§1)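 Bacteria were grown in TSB with 1% dextrose at 35 °C ± 2 °C for at least 96 h, then added to BPW containing 1% dextrose plus test material to give 10^5 to 10^6 CFU/mL at time zero. Broth-alone controls were run in triplicate. Counts were made by spread plating on PCA.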

[4] = system: Proteus vulgaris Wild type
How it was run: as §1

[5] = system: Staphylococcus epidermidis ATCC 12228
How it was run: as §1

With `CC(O)CO` (stereo not drawn) [PG, propylene glycol] the Grade ([1]; 0.5% (wt/vol), 3 day) was 5, the Grade ([1]; 0.5% (wt/vol), 13 day) was 5 and the Grade ([1]; 0.5% (wt/vol), 30 day) was 5. For the same molecule, the Grade ([1]; 1.25% (wt/vol), 3 day) was 5, the Grade ([1]; 1.25% (wt/vol), 13 day) was 5 and the Grade ([1]; 1.25% (wt/vol), 30 day) was 5. The Grade ([1]; 2.5% (wt/vol), 3 day) was 4, the Grade ([1]; 2.5% (wt/vol), 13 day) was 5 and the Grade ([1]; 2.5% (wt/vol), 30 day) was 5. For the same molecule, the Grade ([1]; 5.0% (wt/vol), 3 day) was 4, the Grade ([1]; 5.0% (wt/vol), 13 day) was 4 and the Grade ([1]; 5.0% (wt/vol), 30 day) was 4. The Grade ([2]; 0.5% (wt/vol), 3 day) was 5 (More than 10,000 colonies estimated (thus more than 100,000 CFU/mL)), the Grade ([2]; 0.5% (wt/vol), 14 day) was 5 (More than 10,000 colonies estimated (thus more than 100,000 CFU/mL)) and the Grade ([2]; 0.5% (wt/vol), 30 day) was 5 (More than 10,000 colonies estimated (thus more than 100,000 CFU/mL)). The Grade ([2]; 1.25% (wt/vol), 3 day) was 5 (More than 10,000 colonies estimated (thus more than 100,000 CFU/mL)), the Grade ([2]; 1.25% (wt/vol), 14 day) was 5 (More than 10,000 colonies estimated (thus more than 100,000 CFU/mL)) and the Grade ([2]; 1.25% (wt/vol), 30 day) was 5 (More than 10,000 colonies estimated (thus more than 100,000 CFU/mL)). For the same molecule, the Grade ([2]; 2.5% (wt/vol), 3 day) was 4 (1000 to 10,000 colonies countable (thus 10,000 CFU/mL to 100,000 CFU/mL)), the Grade ([2]; 2.5% (wt/vol), 14 day) was 4 (1000 to 10,000 colonies countable (thus 10,000 CFU/mL to 100,000 CFU/mL)) and the Grade ([2]; 2.5% (wt/vol), 30 day) was 4 (1000 to 10,000 colonies countable (thus 10,000 CFU/mL to 100,000 CFU/mL)). For the same molecule, the Grade ([2]; 5.0% (wt/vol), 3 day) was 3 (100 to 1000 colonies (thus 1000 to 10,000 CFU/mL)), the Grade ([2]; 5.0% (wt/vol), 14 day) was 4 (1000 to 10,000 colonies countable (thus 10,000 CFU/mL to 100,000 CFU/mL)) and the Grade ([2]; 5.0% (wt/vol), 30 day) was 4 (1000 to 10,000 colonies countable (thus 10,000 CFU/mL to 100,000 CFU/mL)). The Grade ([3]; 0.5% (wt/vol), 3 day) was 5 (More than 10,000 colonies estimated (thus more than 100,000 CFU/mL)), the Grade ([3]; 0.5% (wt/vol), 14 day) was 5 (More than 10,000 colonies estimated (thus more than 100,000 CFU/mL)) and the Grade ([3]; 0.5% (wt/vol), 30 day) was 5 (More than 10,000 colonies estimated (thus more than 100,000 CFU/mL)). The Grade ([3]; 1.25% (wt/vol), 3 day) was 5 (More than 10,000 colonies estimated (thus more than 100,000 CFU/mL)), the Grade ([3]; 1.25% (wt/vol), 14 day) was 4 (1000 to 10,000 colonies countable (thus 10,000 CFU/mL to 100,000 CFU/mL)) and the Grade ([3]; 1.25% (wt/vol), 30 day) was 4 (1000 to 10,000 colonies countable (thus 10,000 CFU/mL to 100,000 CFU/mL)). The Grade ([3]; 2.5% (wt/vol), 3 day) was 5 (More than 10,000 colonies estimated (thus more than 100,000 CFU/mL)), the Grade ([3]; 2.5% (wt/vol), 14 day) was 4 (1000 to 10,000 colonies countable (thus 10,000 CFU/mL to 100,000 CFU/mL)) and the Grade ([3]; 2.5% (wt/vol), 30 day) was 4 (1000 to 10,000 colonies countable (thus 10,000 CFU/mL to 100,000 CFU/mL)). The Grade ([3]; 5.0% (wt/vol), 3 day) was 4 (1000 to 10,000 colonies countable (thus 10,000 CFU/mL to 100,000 CFU/mL)), the Grade ([3]; 5.0% (wt/vol), 14 day) was 4 (1000 to 10,000 colonies countable (thus 10,000 CFU/mL to 100,000 CFU/mL)) and the Grade ([3]; 5.0% (wt/vol), 30 day) was 4 (1000 to 10,000 colonies countable (thus 10,000 CFU/mL to 100,000 CFU/mL)). The “P. vulgaris growth grade, 3 day” value ([4]; 0.5% weight/volume) was 4 (1000 to 10,000 colonies countable (thus 10,000 CFU/mL to 100,000 CFU/mL)), the “P. vulgaris growth grade, 13 day” value ([4]; 0.5% weight/volume) was 4 (1000 to 10,000 colonies countable (thus 10,000 CFU/mL to 100,000 CFU/mL)) and the “P. vulgaris growth grade, 30 day” value ([4]; 0.5% weight/volume) was 4 (1000 to 10,000 colonies countable (thus 10,000 CFU/mL to 100,000 CFU/mL)). For the same molecule, the “P. vulgaris growth grade, 3 day” value ([4]; 1.25% weight/volume) was 4 (1000 to 10,000 colonies countable (thus 10,000 CFU/mL to 100,000 CFU/mL)), the “P. vulgaris growth grade, 13 day” value ([4]; 1.25% weight/volume) was 4 (1000 to 10,000 colonies countable (thus 10,000 CFU/mL to 100,000 CFU/mL)) and the “P. vulgaris growth grade, 30 day” value ([4]; 1.25% weight/volume) was 4 (1000 to 10,000 colonies countable (thus 10,000 CFU/mL to 100,000 CFU/mL)). The “P. vulgaris growth grade, 3 day” value ([4]; 2.5% weight/volume) was 4 (1000 to 10,000 colonies countable (thus 10,000 CFU/mL to 100,000 CFU/mL)), the “P. vulgaris growth grade, 13 day” value ([4]; 2.5% weight/volume) was 4 (1000 to 10,000 colonies countable (thus 10,000 CFU/mL to 100,000 CFU/mL)) and the “P. vulgaris growth grade, 30 day” value ([4]; 2.5% weight/volume) was 4 (1000 to 10,000 colonies countable (thus 10,000 CFU/mL to 100,000 CFU/mL)). For the same molecule, the “P. vulgaris growth grade, 3 day” value ([4]; 5.0% weight/volume) was 4 (1000 to 10,000 colonies countable (thus 10,000 CFU/mL to 100,000 CFU/mL)), the “P. vulgaris growth grade, 13 day” value ([4]; 5.0% weight/volume) was 4 (1000 to 10,000 colonies countable (thus 10,000 CFU/mL to 100,000 CFU/mL)) and the “P. vulgaris growth grade, 30 day” value ([4]; 5.0% weight/volume) was 4 (1000 to 10,000 colonies countable (thus 10,000 CFU/mL to 100,000 CFU/mL)). The “S. epidermidis growth grade, 3 day” value ([5]; 0.5% weight/volume) was 5 (More than 10,000 colonies estimated (thus more than 100,000 CFU/mL)), the “S. epidermidis growth grade, 13 day” value ([5]; 0.5% weight/volume) was 5 (More than 10,000 colonies estimated (thus more than 100,000 CFU/mL)) and the “S. epidermidis growth grade, 30 day” value ([5]; 0.5% weight/volume) was 5 (More than 10,000 colonies estimated (thus more than 100,000 CFU/mL)). For the same molecule, the “S. epidermidis growth grade, 3 day” value ([5]; 1.25% weight/volume) was 4 (1000 to 10,000 colonies countable (thus 10,000 CFU/mL to 100,000 CFU/mL)), the “S. epidermidis growth grade, 13 day” value ([5]; 1.25% weight/volume) was 4 (1000 to 10,000 colonies countable (thus 10,000 CFU/mL to 100,000 CFU/mL)) and the “S. epidermidis growth grade, 30 day” value ([5]; 1.25% weight/volume) was 4 (1000 to 10,000 colonies countable (thus 10,000 CFU/mL to 100,000 CFU/mL)). For the same molecule, the “S. epidermidis growth grade, 3 day” value ([5]; 2.5% weight/volume) was 4 (1000 to 10,000 colonies countable (thus 10,000 CFU/mL to 100,000 CFU/mL)), the “S. epidermidis growth grade, 13 day” value ([5]; 2.5% weight/volume) was 4 (1000 to 10,000 colonies countable (thus 10,000 CFU/mL to 100,000 CFU/mL)) and the “S. epidermidis growth grade, 30 day” value ([5]; 2.5% weight/volume) was 4 (1000 to 10,000 colonies countable (thus 10,000 CFU/mL to 100,000 CFU/mL)). For the same molecule, the “S. epidermidis growth grade, 3 day” value ([5]; 5.0% weight/volume) was 4 (1000 to 10,000 colonies countable (thus 10,000 CFU/mL to 100,000 CFU/mL)), the “S. epidermidis growth grade, 13 day” value ([5]; 5.0% weight/volume) was 4 (1000 to 10,000 colonies countable (thus 10,000 CFU/mL to 100,000 CFU/mL)) and the “S. epidermidis growth grade, 30 day” value ([5]; 5.0% weight/volume) was 4 (1000 to 10,000 colonies countable (thus 10,000 CFU/mL to 100,000 CFU/mL)).
